`CCOC(=O)c1ccc(-c2c(Cl)c(CN3C(=O)CCC3=O)nc3sc4c(c23)CCNC4)cc1` had a melting point of 213 to 214 °C. The figure for `CCCC(=O)c1cc(-c2ccccc2)no1` is 89 to 90 °C. The figure for `CC(C)(C)OC(=O)COc1ccc(-c2c(Cl)c(CN3C(=O)CCC3=O)nc3sc4c(c23)CCS(=O)C4)cc1` (centres undefined) is 175 to 176 °C.

Compound `CN(C)C=Nc1c(Cl)cc(N=Cc2ccccc2F)cc1Cl` displayed a melting point of 79 to 81 °C. The compound `COc1ccc2cc(N)cc(C)c2n1` registered a melting point of 115 to 117 °C.

The compound `CCNC=C(C(=O)C=Cc1cccnc1)C(=O)OC` yielded a melting point of 78 to 80 °C. The figure for `CN1C(=O)N(c2ccc(C#N)c(C(F)(F)F)c2)C(=O)C1(CO)c1ccccc1` (centres undefined) is 160 °C.

`COc1cccc(C(=O)Nc2nc(C(=O)c3ccc([N+](=O)[O-])c(OC)c3)n3ccccc23)c1` returned a melting point of 167 °C. The figure for `Cc1ccc(OC(=O)C=Cc2ccccc2)c(C(=O)O)c1` is 162 °C. Regarding `CCCC(CC(=O)Nc1cc(C(N)=O)ccc1C(C)(C)C)c1ccc(OC)cc1OC` (centres undefined), the melting point came to 192 °C. In the case of `COc1ccccc1N1CCN(CC(O)COc2ccc(CC(C)=O)cc2)CC1` (centres undefined) it was 42 to 43 °C; in that of `C#CCN1CCN(c2c(Cl)cc3c(=O)c(C(=O)O)cn4c3c2CCC4C)CC1` (centres undefined), 211 to 213 °C; in that of `COC(=O)CCn1c(=O)n2n(c1=O)C(C(=O)O)C=CC2` (centres undefined), 150 to 153 °C.

`CCCOc1nc2sc(Cl)cc2c(=S)n1CCC`: the melting point is 81 to 83 °C. The figure for `CCOC(=O)c1cn(-c2cc(NC(=O)OC(C)(C)C)c(F)cc2F)c2cc(F)c(C)cc2c1=O` is 205 to 207 °C. In the case of `Cc1noc([C@@H](Cc2ccccc2)NC(=O)[C@@H](Cc2ccc3ccccc3c2)NC(=O)C=CC(C)(C)NC(=O)OC(C)(C)C)n1` it was 161 to 167 °C; in that of `CCCc1ccnc(C(=O)c2[nH]c3cc(Cl)ccc3c2CC(=O)O)c1`, 189 to 191 °C; in that of `Cc1ccc(Cl)c(Nc2ccccc2C(=O)N(O)Cc2ccccc2)c1Cl`, 133 to 135 °C.

With `NS(=O)(=O)c1cccc2c1C(Cl)=CC2`, the melting point fell in the range of 100 to 101 °C. In the case of `COc1cc(C)c2c(c1)[C@@H]1c3ccccc3N[C@@H]1C2` (relative stereo) it was 104 °C; in that of `CC(C)(C)c1ccc(O[C@@H]2CCC[C@H]2O)c(C(C)(C)C)c1` (relative stereo), 112 °C; in that of `CCOC(=O)CNC(=O)N(CC(=O)OCC)Cc1ccccc1`, 64 to 65 °C.

Compound `CCOC(=O)C(=O)Nc1nc(C)c(C)s1` returned a melting point of 86 to 88 °C. In the case of `Cc1c(C2CCC(c3ccccc3)(N(C)C)CC2)[nH]c2ccc(C(F)(F)F)cc12` (centres undefined) it was 204 to 217 °C.

In the case of `CCOC(=O)C1CCN(C(=O)CCCOc2ccc3nc4[nH]c(=O)[nH]c4cc3c2)CC1`, the melting point fell in the range of 251 to 253 °C.

As for `Cc1cc(OC(=O)c2ccccc2)cc(C)c1O`, the melting point lay within 140 to 141 °C.

Regarding `CCn1nc(C(=O)NC2CN(C)CCN(Cc3cccc(C)c3)C2)c2ccccc21` (centres undefined), the melting point fell in the range of 135 to 137 °C.

Compound `CC(=O)OC(CF)c1cccnc1S(N)(=O)=O` (centres undefined) displayed a melting point of 127 to 129 °C. Take `CCN(CC)c1nc(C)nc(N)n1`: the melting point is 125 to 127 °C. The figure for `c1ccc(CNc2nccc3[nH]cnc23)cc1` is 60 to 64 °C; for `Cc1nccn1CC1CCc2c(c3ccccc3n2C)/C1=N/OC(=O)c1cccc(C#N)c1` (centres undefined) it is 160 to 166 °C; for `COC(=O)c1cc(N(C)C(C)=O)cc(N(C)C(C)=O)c1` it is 106 °C. `CCN(c1nc2c(cc1CN(Cc1cc(C(F)(F)F)cc(C(F)(F)F)c1)c1nnn(C)n1)c(C)nn2C)C1CCCC1`: the melting point was 43 to 44 °C.

Consider `Cc1nc(C(O)(c2nc(C)c(C)s2)C(F)(F)F)sc1C`, for which the melting point was 122 to 124 °C. As for `CC1SC(=O)NN=C1c1ccc2c(c1)C(=NNC1CCCCC1)C(=O)N2` (centres undefined), the melting point amounted to 217 °C. On to `N#Cc1ccsc1N=Cc1ccc([N+](=O)[O-])s1`, for which the melting point is 192 to 194 °C. In the case of `CCOc1nc2ccccc2nc1C(=O)Nc1ccc(OCCCCN2CCc3cc(OC)c(OC)cc3C2)cc1` it was 182 °C; in that of `COc1cccc(C=C2SC(=S)N(CC(=O)O)C2=O)c1-c1cc2c(cc1C)C(C)(C)CCC2(C)C`, 149 °C. Compound `O=S(=O)(c1c(Br)c(Br)n(CCl)c1-c1ccc(Cl)cc1)C(F)(F)F` displayed a melting point of 153 to 156 °C. In the case of `COc1cccc(NC(=O)NCC(=O)N2[C@@H](C(=O)OC(C)(C)C)CC[C@H]2c2ccccc2)c1` (racemic) it was 174 °C; in that of `CC=C1CCC2C3CCC4CC(O)C(OCC)CC4(C)C3C(=O)CC12C` (centres undefined), 172 to 178 °C; in that of `Cc1nnc(-c2ccc3occ(-c4cnn(Cc5ccccc5)c4)c3n2)o1`, 194 to 195 °C. Turning to `CCC(=O)OC1=CC(=O)CC(NC(=O)N(C)C)C1` (centres undefined), the melting point was in the range of 69 to 74 °C. The figure for `CCOC(=O)Oc1ccc(S(=O)(=O)N2c3cc(F)c(F)cc3-n3cccc3C2C)cc1` (centres undefined) is 89 to 91 °C. Consider `COc1cc(CCl)ccc1OCc1coc(-c2ccco2)n1`, for which the melting point is 123 to 124 °C. The figure for `COc1ccccc1-c1nn(C(C)C(=O)N(C)C)cc1Cl` (centres undefined) is 74 to 77 °C; for `Cc1nccn1-c1nc(-c2ccc(Cl)cc2)c(CCCN2C(=O)CN(C)C2=O)o1` it is 105 to 106 °C. The figure for `O=C(O)c1cnc(S)n1C(c1ccccc1)c1ccccc1` is 158 °C; for `Cn1cccc1C=CC(=O)NCCCCCC(=O)NO` it is 103 to 105 °C; for `CC(=O)Nc1ccc2c3c(cccc13)S(=O)(=O)C(C)N2` (centres undefined) it is 189 to 190 °C.

Take `O=c1scc(-c2ccc(CCO)cc2)s1`: the melting point was in the range of 92 to 94 °C. Compound `CCOC(=O)C1=C(C)NC(C)=C2C(=O)Oc3cccnc3C12` (centres undefined) returned a melting point of 100 to 150 °C. Compound `Nc1c(Br)cc(Br)c(CCC(=O)O)c1Br` registered a melting point of 195 to 197 °C.

Regarding `COc1ccccc1NC(=O)Nc1ccc(CC(=O)O)cc1C`, the melting point is 260 to 264 °C. The figure for `Cc1ccccc1C(=O)c1ccc(CC(=O)O)n1C` is 133 to 135 °C. As for `COC(=O)c1ccc(C(O)C#Cc2cc(-c3cccs3)c(OC)cc2OC)cc1` (centres undefined), the melting point is 128 to 130 °C.

Turning to `CC(C)CC(NC(=O)C(Cc1c[nH]cn1)NC(=O)C(CC(=O)NCCc1ccccc1)Cc1cccc2ccccc12)C(O)CO` (mixture of isomers), the melting point fell in the range of 101 to 107 °C. Take `Cc1ccc2c(=O)cc(CS(C)=O)oc2c1C` (centres undefined): the melting point was 205 to 209 °C. With `Cc1ccccc1C(=O)c1c(C)nn(C)c1O`, the melting point was in the range of 82 to 83 °C.

`CC1(c2[nH]c3ccccc3c2C2=C(Cl)C(=O)C=C(Cl)C2=O)CC1` registered a melting point of 170 to 171 °C. `COc1ccc(N2CCN(c3ccc([N+](=O)[O-])cc3)CC2)cc1` yielded a melting point of 195 °C. The figure for `CCc1nc2cc(C(C)=O)ccc2n1-c1ccc(CCOC(=O)NS(=O)(=O)c2ccc(C)cc2)cc1` is 188 to 190 °C. The compound `c1cncc(NC2CCNCC2)c1` yielded a melting point of 127 to 129 °C. In turn, `CCCCOc1ccc(NC(=O)c2cnc(C(=O)OC)c(OC)c2)cc1` displayed a melting point of 138 to 141 °C. In the case of `Oc1cccc(/C=C/c2nc(-c3ccccc3)cs2)c1` it was 150 to 151 °C; in that of `Cc1cnc2c(c1)COP(=S)(N(C)C)O2` (centres undefined), 101 to 102 °C; in that of `CSC(=Nc1nc(C)cc(C)n1)NS(=O)(=O)c1ccccc1-c1ccccc1`, 154 to 157 °C. In the case of `Nc1cc(OCCOCP(=O)(O)O)nc(N)n1` it was 279 °C; in that of `CCC(C)c1ccc(-n2c(-c3cc(C)c(OCCO)c(C)c3)nc3c(OC)cccc3c2=O)cc1` (centres undefined), 158 to 159 °C. In turn, `CC(=O)c1ccc2c(c1)C1(c3ccccc3-2)c2ccccc2-c2ccc(C(C)=O)cc21` showed a melting point of 255 to 257 °C. In the case of `Cc1ccc(CC(CC(=O)N2CC3CC=CCC3C2)C(=O)O)cc1` (centres undefined) it was 140 to 141 °C; in that of `Cn1nc2c(cc1=O)CCSc1ccccc1-2`, 139 to 140 °C. In the case of `O=C(Cl)CN1C(=O)C(Cl)=C(Cl)C1=O` it was 102 to 103 °C; in that of `CCCCn1cc(S(C)=O)c(=O)c2sccc21` (centres undefined), 137 to 138 °C; in that of `CC(O)(CCBr)C1CCCCC1` (centres undefined), 31 to 33 °C. In the case of `CC(C)OC(=O)c1ccc2c(c1)ncn2-c1cccc(Br)c1` it was 102 to 104 °C. In the case of `CCOC(=O)c1cc2ccc(Cl)nc2[nH]1`, the melting point fell in the range of 144 to 145 °C. In the case of `Oc1ccc2c3c1OC1C(O)CCC4(F)C(C2)N(CC2CCC2)CCC314` (centres undefined) it was 236 to 239 °C; in that of `Cn1cc(C2=C(c3cn(CCCNC(N)=O)c4ccccc34)C(=O)NC2=O)c2ccccc21`, 248 to 250 °C. In the case of `Cc1oc(-c2ccccc2)nc1COc1ccc(C=C2SC(=O)NC2=O)cc1` it was 225 to 226 °C. The figure for `CC(CCN(C)C1CCC(c2ccc3[nH]c(=O)oc3c2)CC1)c1ccccc1` (centres undefined) is 61 to 70 °C; for `COCC(=O)OC1(C(=O)COC(C)=O)CCC2C3CC(C)C4=CC(=O)C=CC4(C)C3C(O)CC21C` (centres undefined) it is 150 to 152 °C. `Cc1cc(F)ccc1C(=O)CCCN1CCC(O)(c2cccc(C(F)(F)F)c2)CC1` yielded a melting point of 63.5 °C. As for `O=C(c1ccccc1)c1cc(Cl)ccc1C#CCN1C(=O)c2ccccc2C1=O`, the melting point was in the range of 130 to 133 °C.

Compound `O=C(Nc1ccc(Cl)c(Cl)c1)c1cc(Br)ccc1O` yielded a melting point of 249 to 251 °C. As for `COC(=O)C1CCC2C3CC(O)C4(O)CC(O)CCC4(C)C3CCC12C` (centres undefined), the melting point fell in the range of 266 to 268 °C. In the case of `Cc1cccc(C)c1Nc1nc(-c2nc3ccc(C(F)(F)F)cc3[nH]2)cs1` it was 250 to 251 °C; in that of `CCC(CC)(CC(=O)Nc1cccc(OCc2ccc3ccc(F)cc3n2)c1)C(=O)OC`, 92 to 93 °C. The figure for `COc1ccc(-n2cc(C(=O)O)c(C)n2)cc1` is 176 to 178 °C.

For the origin of these results see a melting point compilation (Tetko et al.; mined from patent text by program, amines drawn as free bases though some values may be those of a salt).
